Results reported in patent US10509041B2, “Glucose derivative, and cell imaging method and imaging agent using said derivative” (HIROSAKI UNIVERSITY, priority 2014, dated 2019).
Several values for one entry are separate records, joined by “and”; a condition that tells them apart may be missing. Identical values can stand only once.

Assays:
[1] = tested on: mouse insulinoma cells (MIN6); experiment: Increase in fluorescence intensity (uptake) after administration of fluorescent glucose derivative to MIN6 cells, influence of cytochalasin B (CB) or phloretin (PHT), fluorescence microplate reader; format: cell-based; details: 2-NBDG 200 μM, 5 minutes; CB 10 μM; MIN6 13 days of culture; average, two independent experiments
Method: Increase in fluorescence intensity caused by the administration of CDG, and the influence of a glucose transporter (GLUT) inhibitor CB thereon were confirmed by targeting MIN6 cells.
A 96-well clear-bottom plate having wells of 8 rows (A to H) and 12 columns (1 to 12) (μClear-PLATE, Greiner Bio-One, BLACK) was used in measurement. A culture solution containing MIN6 cells suspended at a density of 60×10^4 cells/mL was added dropwise at 10 μL/well to the central portion of the well, and then, the plate was left standing for 40 minutes in an incubator for fixation. The cells were cultured by the addition of a culture solution at 200 μL/well (6000 cells/well). For layout, the cells were seeded to wells B to H on the third column and wells A to G on the fifth column. Medium replacement was performed by replacing half the amount with a fresh one once every two days at 0 to 4 DIV (days in vitro) and every day at 5 DIV or later. […]
CDG and 2-NBDG were each independently administered to the wells on the third and fifth columns using an 8-channel pipette such that these derivatives were alternately placed on the same plate. Before the administration, the autofluorescence of each well was measured in advance using a fluorescence microplate reader (Flex Station, Molecular Devices, LLC). […] The measurement was conducted at Bottom Read, Averaging 3, and Photomultiplier sensitivity high. […]

[2] = tested on: mouse insulinoma cells (MIN6); experiment: as above; format: cell-based; details: 2-NBDG 200 μM, 5 minutes; PHT 150 μM; MIN6 13 days of culture; average, two independent experiments

O=[N+]([O-])c1ccc(N[C@H]2C(O)O[C@H](CO)[C@@H](O)[C@@H]2O)c2nonc12 (stereo partly drawn) [Compound 2-NBDG, 2-[N-(7-nitrobenz-2-oxa-1,3-diazol-4-yl)amino]-2-deoxy-D-glucose, reference compound]
fluorescence intensity in the presence of CB relative to the absence of CB [1]: 30.8% and 36.4%
fluorescence intensity in the presence of PHT relative to the absence of PHT [2]: 18.6% and 15.7%
